These are literature values, as cited in US20060292225A1, “WATER SOLUBLE ANALGESIC FORMULATIONS AND METHODS FOR PRODUCTION” (priority 2005, published 2006).

Molecules are shown by their SMILES. Where two headings read alike, the source gives them in different places.

For series [1] the following is noted: aqueous, hydrolysis.

`CC(=O)Oc1ccccc1C(=O)O` [aspirin, Acetylsalicylic acid]: the “incidence of side effects (nausea, gastric upset, pain)” value is “about 25%” (higher anti-inflammatory dosages) and 2-10% (low analgesic dose levels, adult users). The “rate of successful treatment” value is given as “less than 10%” with arthritis inflammation (daily dosage 2500 mg) and “over 70%” with arthritis inflammation (daily dosages of 4,000 to 5,000 mg or greater). Besides, the “pH of maximum stability” value in series [1] was 2.4.
